Format in all cases: cell-based
Experiment [1] relates to Bacillus cerreus ATCC 14579. Kind of experiment: MIC, serial broth microdilution, B. cerreus. Conditions: 24 h, 37 °C. On the procedure: The values of MIC, defined as the lowest concentration of antimicrobial complex that prevents visible growth of germs, are presented in Table S4 in the Supplementary Material. To quantify the copper complexes effectiveness as antibacterial agents, their minimum inhibitory concentrations (MICs) were determined using the serial broth microdilution method described by Quinn et al. and Markey et al.. The method was adapted for the purposes of the current study, according to the standards developed by the Clinical and Laboratory Standards Institute. The tests were performed on the same Gram-positive and Gram-negative reference microbial strains. Ten successive dilutions of the copper complexes solutions (1/2 to 1/1024) in nutrient broth (Merck KGaA, Darmstadt, Germany) were performed and then were placed in sterile microplates (one each for every copper complex). The microplates were incubated at 37 ± 2 °C for 24 h. Comparisons of the amount of bacterial growth in each well containing copper complexes solutions with the amount of growth in the growth control wells were performed and the maximal dilution for which the tested copper complexes inhibited bacterial growth was determined.
In general terms: Broth dilution looks for growth in wells or tubes with falling amounts of substance.

Experiment [2] relates to Escherichia coli ATCC 10536. Kind of experiment: Disk diffusion method, E. coli. Conditions: complexes 5 µL of 1 mg/mL; 25 µg Amoxicillin, 5 µg Norfloxacin; 24 h, 37 °C. The text has this:
The disk diffusion method was used to determine the antibacterial activity of the C1 and C2 copper complexes on four reference microbial strains, two Gram-positive (Staphylococcus aureus and Bacillus cerreus) and two Gram-negative (Escherichia coli and Pseudomonas aeruginosa) strains. The disk diffusion method was used to determine the antibacterial activity of the C1 and C2 copper complexes. The method was adapted for the purposes of the current study, according to the standards developed by the Clinical and Laboratory Standards Institute. Four reference microbial strains, two Gram-positive (Staphylococcus aureus ATCC […] and Bacillus cerreus ATCC 14579) and two Gram-negative (Escherichia coli ATCC 10536 and Pseudomonas aeruginosa ATCC 27853) strains, were used for in vitro susceptibility testing. These reference microbial strains were obtained from the American Type Culture Collection (ATCC, Manassas, VA, USA). As positive controls, Amoxicillin (Oxoid Ltd., Basingstoke, UK) and Norfloxacin (Sigma-Aldrich) were used. For each of the four species, an initial suspension of bacterial cultures was inoculated on nutrient agar plates (Merck KGaA, Darmstadt, Germany), incubated for 24 h at 37 ± 2 °C and resuspended in a physiological saline buffer to a […] concentration (on a 0.5 McFarland scale), and further inoculated on Muëller Hinton agar plates (Merck KGaA, Darmstadt, Germany). […] After inoculation, the medium surface was dried and 8 wells were radially drilled 1.5 cm from the outer edge, 3 cm apart. From aliquot samples of 1 mg/mL of each copper complex dissolved in DMSO and incorporated in sterile liquid medium, 5 μL was placed in each of the 8 wells and left for 30 min to diffuse into the agar plates. The plates were then incubated for 24 h at 37 ± 2 °C. Then, 25 μg Amoxicillin and 5 μg Norfloxacin served as a positive controls, while DMSO 0.75% was used as a negative control. Readings were conducted by measuring the diameter of the inhibition zone (Halo Zone Test, in mm). The germ sensitivity of the copper complexes was estimated by comparing the diameter of the inhibition area to that generated by the regular antibiotics with known inhibition values. […] All tests were triplicated, and the measured diameters of the inhibition zone were expressed (in mm) as mean ± standard deviation.
In general terms: Agar diffusion results depend on both activity and mobility in agar.

Experiment [3] relates to human radical growth phase melanoma cell line (WM35). Kind of experiment: MTT cytotoxicity assay, WM35. Conditions: for IC50: WM35 cells, MTT. On the procedure: Three cell lines were used to determine the cytotoxicity of the complexes, a human cervical carcinoma line (HeLa), a human radical growth phase melanoma cell line (WM35), and a normal fibroblastic epithelial cell line (HFL1) using the MTT method. The cells were exposed to C1 and C2 complexes in different concentrations (50, 25, 12.5, 2, and 0.2 µM) at 24, 48, and 72 h. As positive contro, cisplatin was used.
To determine the cytotoxicity of the copper complexes, three cell lines were used: a human cervical carcinoma line (HeLa), a human radical growth phase melanoma cell line (WM35), and a normal fibroblastic epithelial cell line (HFL1). The cell lines were obtained from ATCC (American Type Cell Collection, Manassas, VA 20110-2209, USA) and were maintained in DMEM (Sigma-Aldrich, Saint Louis, Missouri, USA) supplemented with 10% fetal bovine serum (Hyclone), 1 mM glutamine (Sigma-Aldrich), and 1% antibiotic antimycotic 100× (Sigma-Aldrich). The cells were cultured at 37 °C in an atmosphere of 5% CO2 and 95% relative humidity.
The cytotoxicity assays were performed using the MTT assay (3-(4,5-dimethylthiazol-2-yl)-2,5-diphenyl tetrazolium bromide-Sigma Aldrich). Cells were plated at a density of 1 × 10^5 cells/well in 96-well plates for 24 h in normal propagation media. The cultures were then exposed to C1 and C2 complexes in different concentrations (50, 25, 12.5, 2, and 0.2 µM). The complexes were first solubilized in DMSO (Sigma) and then serial dilutions in media were performed until the final concentration of DMSO was less than 1%. As a positive control, cisplatin (Ebewe Pharma Ges.m.b.H. Nfg. KG, Austria) was used, in the same concentrations as the complexes. As a negative control, cell lines cultivated in normal expansion medium with the same amount of DMSO added were used. The cellular viability was determined using the MTT assay at 24, 48, and 72 h, respectively. Formazan particles were solubilized with DMSO and absorbances were determined at 550 nm using a microplate reader (Bio-Rad, Hercules, CA, USA). The cytotoxic activity, expressed as IC50 values representing the complex solution required to inhibit 50% of the cell proliferation, were calculated from the calibration curve by nonlinear regression. Each experiment was carried out in triplicate.
On the technique in general: Tetrazolium dyes change colour on reduction, which living cells bring about.

As usually defined, the MIC is the lowest concentration that inhibits growth of the organism. By IC50 is commonly meant the point on the concentration scale where inhibition reaches its midpoint.

The substance “[Cu(N-(5-(4-Methylphenyl)-[1,3,4]-Thiadiazole-2-yl) Naphtalenesulfonamidate)2(H2O)3] [C1]” yielded a minimal inhibitory concentration (MIC) in experiment [1] of 0.304 µg/mL. For the same substance, in experiment [2], the “Halo Zone Test (diameter of the inhibition zone)” value stood at 14 ± 0.11 mm. The results for the IC50 in experiment [3] (24 h), in experiment [3] (48 h) and in experiment [3] (72 h) were 41.35 ± 0.19 µM, 23.87 ± 0.17 µM and 15.42 ± 0.08 µM, respectively.

In experiment [1], “[Cu(N-(5-Ethyl--[1,3,4]-Thiadiazole-2-yl) Naphtalenesulfonamidate)2(py)2(H2O)] [C2]” came in with an MIC of 0.293 µg/mL. Besides, the “Halo Zone Test (diameter of the inhibition zone)” value in experiment [2] worked out at 16 ± 0.21 mm. Besides, the “IC50 value compared with cisplatin” value in experiment [3] (WM35 cell lines, 24 h) is reported as “about two times lower”. Besides, the half-inhibitory concentration (IC50) in experiment [3] (24 h) was 13 ± 0.15 µM; in experiment [3] (48 h) it was 8.11 ± 0.13 µM; in experiment [3] (72 h), 4.66 ± 0.07 µM.
